Assay results from patent US20230235327A1, “A DBAIT MOLECULE IN COMBINATION WITH KRAS INHIBITOR FOR THE TREATMENT OF CANCER” (ONXEO, priority 2020, published 2023).

Tests used:
Assay type in all cases: cell-based
MIA PaCa-2 cells = experiment: Selection of resistant populations, cell survival by cell counting; details: MIA PaCa-2, continuous 1 μM
Experimental: (§1) Cells were grown according to the supplier's instructions and maintained at 37° C. in a humidified atmosphere at 5% CO2. Medium was renewed twice a week and cells were passed when the confluence reached 70-80% depending on cell lines. Each cell line was generally kept in passage for no more than 2 months.
(§2) At least 3 to 6 independent populations were treated for each condition. Drugs were renewed twice a week to maintain a high pressure of resistance selection. Cells were harvested, washed and counted approximately ones a week after staining with 0.4% trypan blue (Sigma Aldrich, Saint-Louis, USA) using an automated cell counter (EVE™-Nanoentek).

NCI-H23 cells [1] = experiment: Flow cytometry of p16, p21, pPERK and transferrin receptor
Experimental: NCI-H23 were seeded in T25 flasks at 4.105 cells per flask and then treated for 24 h with AsiDNA™ at 100 nM or 5 μM for 24 hours. For intracellular staining (pPERK and CDK p16/CDK p21, mTOR, Bcl-2 staining), cells were washed, then fixed in PBS/70% Ethanol during at least 1 hour at 4° C. Cells were then washed, permeabilized with PBS/0.2% TritonX-100 solution at RT for 30 min, and saturated with PBS/2% Bovine Serum Albumin (BSA) solution at RT for 10 min. Then, cells were washed with PBS and incubated 1 hour with respectively, FITC-conjugated anti pPERK (Biorbyt, UK, 1:120), Alexa647-conjugated anti-CDK p16 (Cell signaling, Danvers Mass., USA, 1:50), Alexa488-conjugated anti-CDK p21 (Cell signaling, Danvers Mass., USA, 1:50), Alexa488-conjugated anti-mTOR (Cell signaling, Danvers Mass., USA, 1:50), Alexa647-conjugated anti-Bcl-2 (Cell signaling, Danvers Mass., USA, 1:50) before flow cytometry analysis (Guava EasyCyte 12H, Luminex, Germany). For cell-surface receptors staining with a PE-conjugated anti-transferrin receptor antibody (Thermofisher, Waltham Mass., USA, 1:20). Stained cells were then washed with PBS and fluorescence intensities were acquired with a Guava EasyCyte 12H flow cytometer (Luminex, Germany). Data were analyzed using FlowJo software (Tree Star, CA, USA), cells were harvested and washed directly after treatment end, and then incubated for 1 hour at 4° C.

NCI-H23 cells [2] = experiment: Selection of resistant populations, cell growth by cell counting under continuous treatment
Experimental: as §1, with “Cell cultures were performed with non-small cell lung (NSCLC) cancer cell line NCI-H23, a KRAS^G12C mutant cell line (heterozygous mutation). The NCI-H23 cell line was purchased from the ATCC. Cells” for “Cells”
as §2
Cells were seeded in T75 flasks with 5.10^5 cells per flask and incubated 24 hours at 37° C. before addition of AMG-510 (20 μM) with or without AsiDNA (doses ranging from 100 nM to 2500 nM). AsiDNA was added either concomitantly and continuously with the KRAS^G12C inhibitor or two weeks from the AMG-510 treatment start. At least 3 to 6 independent populations were treated for each condition. Drugs were renewed twice a week to maintain a high pressure of resistance selection. Cells were harvested, washed and counted approximately ones a week after staining with 0.4% trypan blue (Sigma Aldrich, Saint-Louis, USA) using an automated cell counter (EVE™-Nanoentek).

NCI-H23 cells [3] = experiment: βgal staining (senescence detection)
Experimental: Slow cycling/senescent drug-tolerant cells were identified using Senescence detection kit according to the manufacturer instructions (Abcam; ab65351). Briefly, cells were seeded in 12-well culture plates and incubated overnight at 37° C. Cells were then washed twice with PBS, fixed during 10 minutes with 0.5 ml of Fixative solution at room temperature, washed twice with PBS and then stained using 0.5 ml of the Staining solution mix overnight at 37° C. Cells are then analyzed under microscope for development of blue color.

[4] = AMG-510 (20 μM) induced senescent cells vs parental cell line
[5] = NCI-H23 residual cells under treatment vs parental

For `C=CC(=O)N1CCN(c2nc(=O)n(-c3c(C)ccnc3C(C)C)c3nc(-c4c(O)cccc4F)c(F)cc23)[C@@H](C)C1` [AMG-510], which “time to emergence of acquired resistance after treatment start” value (MIA PaCa-2 cells) is on record?
The value was ~1 month.

What about the pPERK level (NCI-H23 cells [1]; [4]) of the same molecule?
The pPERK level was “increase”.

And the transferrin receptor level (NCI-H23 cells [1]; [4])?
Its transferrin receptor level is “increase”.

What about the p16 expression (NCI-H23 cells [1]; [5]) of the same molecule?
The p16 expression was “increases”.

And the p21 expression (NCI-H23 cells [1]; [5])?
Its p21 expression is “increases”.

And the “resistance acquired under continuous treatment” value (NCI-H23 cells [2]; NCI-H23, AMG-510 20 μM or MRTX-849 1 μM alone)?
Its value is “de-novo resistance”.

And the “time from which cells restarted to divide and entered a proliferative state” value (NCI-H23 cells [2]; NCI-H23, continuous AMG-510 20 μM alone)?
The value was “two to three”.

And the “initial sensitivity of cells to the inhibitor” value (NCI-H23 cells [2]; NCI-H23, continuous high dose/IC90, two first weeks of treatment)?
The value was “very sensitive”.

And the “β-gal positive staining, cells in a senescent state” value (“β-gal positive staining, cells” below) (NCI-H23 cells [3]; NCI-H23, Day 17 of treatment)?
Its value is 50%.

What about the “β-gal positive staining, cells” value (NCI-H23 cells [3]; NCI-H23, Day 27 of treatment) of the same molecule?
Its value is 10%.

And the “β-gal positive staining, cells” value (NCI-H23 cells [3]; NCI-H23, day 10 of treatment)?
Its value is 90%.
